Reference: patent US20220202905A1, “COMPOSITION FOR PREVENTING OR TREATING NEUROTROPHIC KERATITIS WHICH CONTAINS PACAP PEPTIDE OR STABILIZED PACAP PEPTIDE” (SENJU PHARMACEUTICAL CO., LTD., priority 2019, published 2022)
pEC50: −log10 of the molar value. Square brackets hold non-standard residues; d marks the D form. Peptide text beside a SMILES is read from it. Ala(1H-tetrazol-5-yl) = N[C@@H](Cc1nnn[nH]1)C(=O)O

Key:
PAC1R = target: T1, PAC1R (Homo sapiens, UniProt P41586); assay: cAMP assay in PAC1R high-expressing CHO-K1 cell line; type: cell-based; conditions: Table 12; cAMP inducing effect, CHO-K1 PAC1R high-expressing cells
T1 construct: host or cells: CHO-K1
T1 sequence (P41586 21-468): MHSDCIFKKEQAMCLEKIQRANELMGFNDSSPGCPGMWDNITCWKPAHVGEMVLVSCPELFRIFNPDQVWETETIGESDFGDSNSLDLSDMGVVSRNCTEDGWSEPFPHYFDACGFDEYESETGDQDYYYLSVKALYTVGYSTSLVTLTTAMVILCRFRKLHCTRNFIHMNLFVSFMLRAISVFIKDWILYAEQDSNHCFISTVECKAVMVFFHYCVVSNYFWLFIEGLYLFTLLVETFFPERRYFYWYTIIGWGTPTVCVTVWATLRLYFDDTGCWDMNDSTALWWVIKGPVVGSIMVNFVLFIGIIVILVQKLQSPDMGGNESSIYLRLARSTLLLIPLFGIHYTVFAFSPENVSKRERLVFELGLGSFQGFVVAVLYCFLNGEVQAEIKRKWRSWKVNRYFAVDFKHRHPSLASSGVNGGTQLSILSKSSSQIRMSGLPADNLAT
Description: (§1) The cells were cultured for 18 to 24 hours at 37° C. in a 5% C02 incubator, adhering the cells to the plate. […] A 5-fold dilution series was then prepared with the same Cell assay buffer and used in an assay. The cAMP assay was carried out using a Hit Hunter cAMP Assay for Biologics kit (product of DiscoveRx, Cat. No. 90-0075LM25), according to the included kit instructions. […] Next, the culture medium was removed from the CHO-K1 cell culture plate, washing was performed with PBS, and the peptide-cAMP antibody liquid mixtures were added to the cells and incubated for 30 minutes under a 5% CO2 atmosphere at 37° C. A working detection solution was then added and the culture plate was shielded from light with aluminum foil and incubated at 25° C. for 1 hour. After incubation, Solution A was added and the culture plate was shielded from light with aluminum foil and then incubated at 25° C. for 3 hours. […] The obtained value for the Relative Luminescence Unit (RLU) was analyzed with GraphPad Prism Ver 6.05 (product of Graph Pad) and the EC50 value was calculated for each peptide. […] FIG. 2 and Table 11. […] A 5-fold dilution series was then prepared with the same Cell assay buffer and used in an assay. […] A 5-fold dilution series was then prepared with the same Cell assay buffer and used in an assay.

VPAC1R = target: T2, VPAC1R (Homo sapiens, UniProt P32241); assay: cAMP assay in VPAC1R high-expressing CHO-K1 cell line; type: cell-based; conditions: Table 12; cAMP inducing effect, CHO-K1 VPAC1R high-expressing cells
T2 construct: host or cells: CHO-K1
T2 sequence (P32241 31-457): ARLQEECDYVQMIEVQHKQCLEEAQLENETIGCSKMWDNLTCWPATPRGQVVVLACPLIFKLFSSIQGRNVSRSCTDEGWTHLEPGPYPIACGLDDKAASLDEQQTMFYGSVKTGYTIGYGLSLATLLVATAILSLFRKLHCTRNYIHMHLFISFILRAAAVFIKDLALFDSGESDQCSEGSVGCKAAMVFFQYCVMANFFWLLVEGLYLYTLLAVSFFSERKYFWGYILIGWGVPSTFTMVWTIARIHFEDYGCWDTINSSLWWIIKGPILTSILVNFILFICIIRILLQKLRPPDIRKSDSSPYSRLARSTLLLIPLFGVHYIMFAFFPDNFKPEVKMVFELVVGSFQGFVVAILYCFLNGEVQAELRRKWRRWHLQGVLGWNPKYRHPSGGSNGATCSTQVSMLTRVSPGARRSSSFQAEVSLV
Description: as §1

[1] = Peptide stability test, phosphate buffer (pH 7.0), 40° C. storage, HPLC remaining rate; type: physicochemical
Description: Peptides 1 and 3 to 5 synthesized in Example 2 were weighed and dissolved in phosphate buffer (pH 7.0) to prepare 1.0 mM peptide solutions. The 1.0 mM peptide solutions were then diluted with phosphate buffer to 100 μM. After filtering with Chromatdisk (product of Merck Millipore, Millex-GV, 0.22 μm), each filtrate was dispensed into an LC vial (Waters Deactivated […] prepared peptide solutions were incubated for one month or 2 months in a 40° C. thermostatic bath to obtain stored samples. A simultaneously prepared sample among the peptide solutions that was not stored was used as a standard sample (initial sample). The standard sample and the stored samples were stored at -30° C. until sample analysis. Using the total weight of the aqueous peptide solution and storage vessel as the specimen weight, measurements were recorded as the specimen weights before storage and the specimen weights after storage under different storage conditions. The empty weight of the storage vessel was also measured, and the moisture permeability was determined by the following formula. After stirring the standard sample and the stored samples with a vortex mixer, each peptide solution was transferred to an HPLC vial (Deactivated Qsert vial by Waters Co.). Reverse-phase HPLC (HPLC system: Prominence by Shimadzu Corp.) was conducted under the conditions shown in Table 3 below for analysis of the peptide solutions, and chromatograms were obtained. Guard column: XSelect CSH C18 by Waters Co., 5 μm, 4.6×20 mm Guard Cartridge Detection wavelength: 220 nm Mobile phase A: 0.1% formic acid aqueous solution Mobile phase B: 0.1% acetonitrile formate solution Measuring time: 30 minutes Measuring sample injection rate: 50 μL Flow rate: 1.0 mL/min Sample cooler: 4° C. Column temperature: 40° C. Mobile phase delivery: The mixing ratio of mobile phase A and mobile phase B was varied as shown in Table 3 for linear concentration gradient control. The peak area value for the peptide in the chromatogram was calculated, and the remaining rate (remaining rate before correction for water) was calculated using formula (2). The remaining rate after correction for water was also calculated from the remaining rate before correction for water using formula (3), taking into account the moisture permeability of the vessel. Peptides 10 and 11 synthesized in Example 2 were weighed and dissolved in phosphate buffer (pH 7.0) to prepare 1.0 mM peptide solutions. Each solution was filtered with a Chromatdisk (product of Merck Millipore. Millex-GV, 0.22 μm). Each filtrate was diluted to 100 μM with phosphate buffer (pH 7.0) and dispensed into a tube (Protein LoBind Tube by Eppendorf Co.). The prepared peptide solutions were incubated for one month or 2 months in a 40° C. thermostatic bath to obtain stored samples. A simultaneously prepared sample among the peptide solutions that was not stored was used as a standard sample (initial sample). The standard sample and the stored samples were stored at -30° C. until sample analysis. The remaining rate after correction for water for each peptide among the stored samples was measured in the same manner as Example 4, and the results are shown in Table 8.

[2] = Peptide stability test, Tris buffer (pH 7.0), 60° C. storage, HPLC remaining rate; type: physicochemical; conditions: Table 7; 100 μM in Tris buffer pH 7.0
Outline: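 Peptides at 100 μM in Tris buffer (pH 7.0) stored 1 or 2 weeks at 60° C.; unstored sample kept at −30° C. as initial reference. Remaining peptide quantified by reversed-phase HPLC at 220 nm (formic acid/acetonitrile gradient, 40° C. column), as water-corrected remaining rate.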

[3] = Table 8, 100 μM in phosphate buffer pH 7.0, measured as in Example 4

Compound | pEC50 (PAC1R) | pEC50 (VPAC1R) | remaining rate after correction for water, 40° C., 1 month preservation [1, 3] | remaining rate after correction for water, 40° C., 2 months preservation [1, 3] | stability in aqueous solution (in words), 40° C. storage ([1]; phosphate buffer pH 7.0, 1 or 2 months) | remaining rate after correction for water, 60° C., 1 week preservation [2] | remaining rate after correction for water, 60° C., 2 weeks preservation [2]
CC[C@H](C)[C@H](NC(=O)CNC(=O)[C@H](Cc1nnn[nH]1)NC(=O)[C@H](CO)NC(=O)[C@H](Cc1c[nH]cn1)NC(C)=O)C(=O)N[C@@H](Cc1ccccc1)C(=O)N[C@H](C(=O)N[C@@H](Cc1nnn[nH]1)C(=O)N[C@@H](CO)C(=O)N[C@@H](Cc1ccc(O)cc1)C(=O)N[C@@H](CO)C(=O)N[C@@H](CCCNC(=N)N)C(=O)N[C@@H](Cc1ccc(O)cc1)C(=O)N[C@@H](CCCNC(=N)N)C(=O)N[C@@H](CCCCN)C(=O)N[C@@H](CCC(N)=O)C(=O)N[C@@H](CCSC)C(=O)N[C@@H](C)C(=O)N[C@H](C(=O)N[C@@H](CCCCN)C(=O)N[C@@H](CCCCN)C(=O)N[C@@H](Cc1ccc(O)cc1)C(=O)N[C@@H](CC(C)C)C(=O)N[C@@H](C)C(=O)N[C@@H](C)C(=O)N[C@H](C(=O)N[C@@H](CC(C)C)C(N)=O)C(C)C)C(C)C)[C@@H](C)O [Peptide 10] (Ac-HS[Ala(1H-tetrazol-5-yl)]GIFT[Ala(1H-tetrazol-5-yl)]SYSRYRKQMAVKKYLAAVL-NH2) |  | 10.00 | 94.0% | 86.8% | stabilized to the same degree |  | 
CC[C@H](C)[C@H](NC(=O)CNC(=O)[C@H](Cc1nnn[nH]1)NC(=O)[C@H](CO)NC(=O)[C@H](Cc1c[nH]cn1)NC(C)=O)C(=O)N[C@@H](Cc1ccccc1)C(=O)N[C@H](C(=O)N[C@@H](Cc1nnn[nH]1)C(=O)N[C@@H](C)C(=O)N[C@@H](Cc1ccc(O)cc1)C(=O)N[C@@H](CO)C(=O)N[C@@H](CCCNC(=N)N)C(=O)N[C@@H](Cc1ccc(O)cc1)C(=O)N[C@@H](CCCNC(=N)N)C(=O)N[C@@H](CCCCN)C(=O)N[C@@H](CCC(N)=O)C(=O)N[C@@H](C)C(=O)N[C@@H](C)C(=O)N[C@H](C(=O)N[C@@H](CCCCN)C(=O)N[C@@H](CCCCN)C(=O)N[C@@H](Cc1ccc(O)cc1)C(=O)N[C@@H](CC(C)C)C(=O)N[C@@H](C)C(=O)N[C@@H](C)C(=O)N[C@H](C(=O)N[C@@H](CC(C)C)C(N)=O)C(C)C)C(C)C)[C@@H](C)O [Peptide 27] (Ac-HS[Ala(1H-tetrazol-5-yl)]GIFT[Ala(1H-tetrazol-5-yl)]AYSRYRKQAAVKKYLAAVL-NH2) | 10.22 | 10.36 |  |  |  | 96.4% | 93.5%

Next, values leading:

pEC50 (PAC1R) | pEC50 (VPAC1R) | remaining rate after correction for water, 40° C., 1 month preservation [1, 3] | remaining rate after correction for water, 40° C., 2 months preservation [1, 3] | stability in aqueous solution (in words), 40° C. storage ([1]; phosphate buffer pH 7.0, 1 or 2 months) | remaining rate after correction for water, 60° C., 1 week preservation [2] | remaining rate after correction for water, 60° C., 2 weeks preservation [2] | Compound
10.22 | 10.00 |  |  |  |  |  | CC[C@H](C)[C@H](NC(=O)CNC(=O)[C@H](Cc1nnn[nH]1)NC(=O)[C@H](CO)NC(=O)[C@@H](N)Cc1c[nH]cn1)C(=O)N[C@@H](Cc1ccccc1)C(=O)N[C@H](C(=O)N[C@@H](CC(=O)O)C(=O)N[C@@H](CO)C(=O)N[C@@H](Cc1ccc(O)cc1)C(=O)N[C@@H](CO)C(=O)N[C@@H](CCCNC(=N)N)C(=O)N[C@@H](Cc1ccc(O)cc1)C(=O)N[C@@H](CCCNC(=N)N)C(=O)N[C@@H](CCCCN)C(=O)N[C@@H](CCC(N)=O)C(=O)N[C@@H](CCSC)C(=O)N[C@@H](C)C(=O)N[C@H](C(=O)N[C@@H](CCCCN)C(=O)N[C@@H](CCCCN)C(=O)N[C@@H](Cc1ccc(O)cc1)C(=O)N[C@@H](CC(C)C)C(=O)N[C@@H](C)C(=O)N[C@@H](C)C(=O)N[C@H](C(=O)N[C@@H](CC(C)C)C(N)=O)C(C)C)C(C)C)[C@@H](C)O [Peptide 3]
 | 10.36 |  |  |  | 95.8% | 92.7% | CC[C@H](C)[C@H](NC(=O)CNC(=O)[C@H](Cc1nnn[nH]1)NC(=O)[C@H](CO)NC(=O)[C@H](Cc1c[nH]cn1)NC(C)=O)C(=O)N[C@@H](Cc1ccccc1)C(=O)N[C@H](C(=O)N[C@@H](Cc1nnn[nH]1)C(=O)N[C@@H](CO)C(=O)N[C@@H](Cc1ccc(O)cc1)C(=O)N[C@@H](CO)C(=O)N[C@@H](CCCNC(=N)N)C(=O)N[C@@H](Cc1ccc(O)cc1)C(=O)N[C@@H](CCCNC(=N)N)C(=O)N[C@@H](CCCCN)C(=O)N[C@@H](CCC(N)=O)C(=O)N[C@@H](CC(C)C)C(=O)N[C@@H](C)C(=O)N[C@@H](C)C(=O)N[C@@H](CCCCN)C(=O)N[C@@H](CCCCN)C(=O)N[C@@H](Cc1ccc(O)cc1)C(=O)N[C@@H](CC(C)C)C(=O)N[C@@H](C)C(=O)N[C@@H](C)C(=O)N[C@H](C(=O)N[C@@H](CC(C)C)C(N)=O)C(C)C)[C@@H](C)O [Peptide 19] (Ac-HS[Ala(1H-tetrazol-5-yl)]GIFT[Ala(1H-tetrazol-5-yl)]SYSRYRKQLAAKKYLAAVL-NH2)
10.10 | 10.14 |  |  |  | 96.5% | 93.1% | CC[C@H](C)[C@H](NC(=O)[C@H](C)NC(=O)[C@H](Cc1nnn[nH]1)NC(=O)[C@H](CO)NC(=O)[C@H](Cc1c[nH]cn1)NC(C)=O)C(=O)N[C@@H](Cc1ccccc1)C(=O)N[C@H](C(=O)N[C@@H](Cc1nnn[nH]1)C(=O)N[C@@H](CO)C(=O)N[C@@H](Cc1ccc(O)cc1)C(=O)N[C@@H](CO)C(=O)N[C@@H](CCCNC(=N)N)C(=O)N[C@@H](Cc1ccc(O)cc1)C(=O)N[C@@H](CCCNC(=N)N)C(=O)N[C@@H](CCCCN)C(=O)N[C@@H](CCC(N)=O)C(=O)N[C@@H](CC(C)C)C(=O)N[C@@H](C)C(=O)N[C@H](C(=O)N[C@@H](CCCCN)C(=O)N[C@@H](CCCCN)C(=O)N[C@@H](Cc1ccc(O)cc1)C(=O)N[C@@H](CC(C)C)C(=O)N[C@@H](C)C(=O)N[C@@H](C)C(=O)N[C@H](C(=O)N[C@@H](CC(C)C)C(N)=O)C(C)C)C(C)C)[C@@H](C)O [Peptide 23] (Ac-HS[Ala(1H-tetrazol-5-yl)]AIFT[Ala(1H-tetrazol-5-yl)]SYSRYRKQLAVKKYLAAVL-NH2)
